Assay results as given in article PMC12349723, “Computationally accelerated identification of P-glycoprotein inhibitors” (PLOS One, 2025).
Values joined by “and” are separate entries in the source; they are usually repeats but may differ in a detail not shown here. Equal entries are not always repeated. Where two headings read alike, the source gives them in different places.

Tests used:
Format in all cases: cell-based, human
A2780 cells = test: MTT viability assay, parental A2780 cells, with or without PTX; conditions: for Increase of PTX toxicity against parental A2780 cells: 15 µM compound with or without 500 nM PTX, 48 h, MTT; for Mean % Survival / % Survival (individual sample): A2780 cells; for Mean % Survival / viability at 15 µM: mean of 8 or 12 samples; for % Survival (individual sample): single samples; for viability at 15 µM: Homo sapiens, A2780, A2780 cells, read-out: Mean % Survival
Method: (§1) The chemotherapeutic sensitive DU145 human prostate cancer cells and the multidrug resistant sub-line, DU145-TXR, were generous gifts from Dr. Evan Keller (University of Michigan, Ann Arbor, MI). The MDR, P-gp overexpressing DU145-TXR cells were maintained under positive selection pressure by supplementing complete medium with 10 nM paclitaxel (Acros Organics, NJ). In addition to the aforementioned cell lines, the chemotherapeutic sensitive A2780 ovarian cancer cells (93112519, Sigma) and the multidrug resistant A2780-ADR (93112520, Sigma) were maintained in complete RPMI media consisting of RPMI-1640 with L-glutamine, 10% fetal bovine serum (FBS; Corning), 100 U/mL penicillin and 100 μg/mL streptomycin in a humidified incubator at 37 °C and 5% CO2. The MDR, P-gp overexpressing A2780-ADR cell line was maintained under positive selection pressure by supplementing complete medium with 100 nM doxorubicin (Fisher Scientific, NJ). The non-cancerous HFL1 (human lung fibroblast) cell line cell line was a generous gift from Dr. Robert Harrod (Southern Methodist University, Dallas, TX) and was maintained in complete F12K media consisting of F12K with 10% fetal bovine serum, 100 U/mL penicillin, and 100 µg/mL streptomycin (Gibco). Flasks and 96 well plates that were used with the non-cancerous line HFL1 were pre-treated with 0.1 mg/ml Collagen Type 1 (Gibco) and rinsed with PBS (Fisher).
(§2) Culture of the DU145, DU145-TXR, and HFL1 cell lines was performed as described in [8]. Culture of the A2780 and A2780-ADR cell lines was performed as described in [9]. MTT assays were performed as described in [8] with minor modifications. LC-MS/MS accumulation assays were performed as described in {Nanayakkara, 2018 #173} [9] with some modifications. […] The inhibitor concentration was lowered to 15 µM here, as the goal of the study was to identify compounds that were effective in reversing MDR at low concentrations, and to determine if the expanded virtual-assisted methods improved on our first-draft attempt. Compounds 56–98 were pre-screened using Resazurin cell viability assays: cells were incubated with 15 µM compound with or without 500 nM PTX for 48 hours, after which cell survival was assessed similar to [39]. Data represent the mean of two separate experiments, with n = 3 samples per experiment (n = 6 total) (S4 Table). The top performing compounds from this initial screen were re-tested with MTT viability assays against DU145-TXR cells, as described below.
(§3) MTT assays measure the reduction of yellow, water soluble 3-(4,5-dimethylthiazol-2-yl)-2,5-diphenyltetrazolium bromide (MTT) to blue, insoluble formazan crystals by cellular reductase processes in living cells. Cells were trypsinized from monolayers and seeded in complete medium in 96 well plates. Cancerous cell lines (DU145, DU145-TXR, A2780, A2780-ADR) were seeded at 3,000 cells per well in complete RPMI medium. The non-cancerous HFL1 line was seeded at 4,000 cells per well in complete F12K medium, in collagen-treated plates (Collagen Type 1, Gibco). Cells were incubated with experimental compounds for 48 hours at 37 °C and 5% CO2 in a humidified incubator. At 48 hours, MTT was added (20 µL/well of 5 mg/mL MTT in PBS) to each well. After incubation for 4 hours, the media was removed, and the formazan crystals were dissolved in 100 µL DMSO per well. Plates containing the semi-adherent A2780 or A2780-ADR lines were spun at 1400 rpm for 3 minutes prior to aspiration of media, and the addition of DMSO. Plates were shaken for 10 minutes at 500 rpm on an Orbital shaker (LabDoctor from MidSci, St Louis, MO). The absorbance was measured at 570 nm using a Bio-Tek Cytation 5 (Bio-Tek, Winooski, VT). The measured absorbance value was correlated with the number of metabolically active cells in that well, corrected for absorbance of media. […]

A2780-ADR cells = test: MTT viability assay, reversal of MDR in P-gp overexpressing A2780-ADR cells; conditions: for Reversal of MDR in A2780-ADR cells: 15 µM compound with or without 500 nM PTX, 48 h, MTT; for Mean % Survival / % Survival (individual sample) / viability at 15 µM: A2780-ADR cells; for Mean % Survival / viability at 15 µM: mean of 12 samples; for % Survival (individual sample): single samples (trials 1-3, samples 1-4); for viability at 15 µM: Homo sapiens, A2780 ADR, read-out: Mean % Survival
Method: as §1, §2, §3

DU145-TXR cells = test: MTT viability assay, reversal of MDR (re-sensitization to paclitaxel) in P-gp overexpressing DU145-TXR cells; conditions: for % Survival, mean / % Survival: 15 µM compound + 500 nM PTX (Paclitaxel, Taxol); for % Survival, mean / % Survival / viability at 15 µM: DU145-TXR; for Re-sensitization of DU145-TXR cells to PTX (reversal of MDR): 15 µM compound with or without 500 nM PTX, 48 h, MTT, re-sensitization = 30% or greater decrease in cell viability; for viability at 15 µM: Homo sapiens, 15 µM Compound Alone
Method: as §1, §2, §3

[1] = mean of 8 samples, read-out: % Survival, mean
[2] = trial 1, sample 1, read-out: % Survival
[3] = trial 1, sample 2, read-out: % Survival
[4] = trial 1, sample 3, read-out: % Survival
[5] = trial 1, sample 4, read-out: % Survival
[6] = trial 2, sample 1, read-out: % Survival
[7] = trial 2, sample 2, read-out: % Survival
[8] = trial 2, sample 3, read-out: % Survival
[9] = trial 2, sample 4, read-out: % Survival

| Compound | Increase of PTX toxicity against parental A2780 cells (A2780 cells) | Mean % Survival (A2780 cells; 15 µM compound + 500 nM PTX) | % Survival (individual sample) (A2780 cells; 15 µM compound alone) | viability at 15 µM (A2780 cells; 15 µM compound alone) | Reversal of MDR in A2780-ADR cells (A2780-ADR cells) | Mean % Survival (A2780-ADR cells; 15 µM compound + 500 nM PTX) | % Survival (individual sample) (A2780-ADR cells; 15 µM compound + 500 nM PTX) | % Survival (individual sample) (A2780-ADR cells; 15 µM compound alone) | viability at 15 µM (A2780-ADR cells; 15 µM compound alone) | % Survival, mean (DU145-TXR cells; mean of 8 samples) | % Survival (DU145-TXR cells; trial 1, sample 1) | % Survival (DU145-TXR cells; trial 1, sample 2) | % Survival (DU145-TXR cells; trial 1, sample 3) | % Survival (DU145-TXR cells; trial 1, sample 4) | % Survival (DU145-TXR cells; trial 2, sample 1) | % Survival (DU145-TXR cells; trial 2, sample 2) | % Survival (DU145-TXR cells; trial 2, sample 3) | % Survival (DU145-TXR cells; trial 2, sample 4) | Re-sensitization of DU145-TXR cells to PTX (reversal of MDR) (DU145-TXR cells) | viability at 15 µM (DU145-TXR cells; [1]) | other results |
| --- | --- | --- | --- | --- | --- | --- | --- | --- | --- | --- | --- | --- | --- | --- | --- | --- | --- | --- | --- | --- | --- |
| COc1cccc(N2CCN(c3ccc4nnc(CCC(=O)Nc5ccc(F)c(F)c5)n4n3)CC2)c1 [Compound 101, COc1cccc(c1)N1CCN(CC1)c1ccc2nnc(CCC(=O)Nc3ccc(F)c(F)c3)n2n1] | did not greatly increase the toxicity of PTX against the parental A2780 cells | 14.3% | 64% | 91.9% | reversed MDR in A2780-ADR cells | 41.5% | 46% | 93% | 88% | 57.4% | 48% | 48% | 37% | 48% | 83% | 70% | 66% | 58% | re-sensitized DU145-TXR cells to PTX | 112% | viability at 15 µM (DU145-TXR cells; [2]): 121%; viability at 15 µM (DU145-TXR cells; [3]): 110%; viability at 15 µM (DU145-TXR cells; [4]): 111%; viability at 15 µM (DU145-TXR cells; [5]): 113%; viability at 15 µM (DU145-TXR cells; [6]): 117%; viability at 15 µM (DU145-TXR cells; [7]): 106%; viability at 15 µM (DU145-TXR cells; [8]): 109%; viability at 15 µM (DU145-TXR cells; [9]): 104% |
| O=C(c1nc(-c2ccccn2)no1)N1CCN(c2nsc3ccccc23)CC1 [Compound 124, O=C(N1CCN(CC1)c1nsc2ccccc12)c1nc(no1)-c1ccccn1] | did not greatly increase the toxicity of PTX against the parental A2780 cells | 14.5% | 86% | 89.5% | reversed MDR in A2780-ADR cells | 52.5% | 58% | 94% and 91% | 92.5% | 75.6% | 62% | 72% | 95% | 73% | 91% | 86% | 67% | 58% | re-sensitized DU145-TXR cells to PTX | 98.6% | % Survival (individual sample) (A2780 cells; 15 µM compound + 500 nM PTX): 10%; viability at 15 µM (DU145-TXR cells; [2]): 96%; viability at 15 µM (DU145-TXR cells; [3]): 102%; viability at 15 µM (DU145-TXR cells; [4]): 79%; viability at 15 µM (DU145-TXR cells; [5]): 95%; viability at 15 µM (DU145-TXR cells; [6]): 114%; viability at 15 µM (DU145-TXR cells; [7]): 94%; viability at 15 µM (DU145-TXR cells; [8]): 103%; viability at 15 µM (DU145-TXR cells; [9]): 106% |
| Cc1onc(-c2ccccc2)c1-c1nnc(Cn2cnc3c(oc4ccccc43)c2=O)o1 [Compound 78, Cc1onc(c1-c1nnc(Cn2cnc3c4ccccc4oc3c2=O)o1)-c1ccccc1] | did not greatly increase the toxicity of PTX against the parental A2780 cells | 13.4% | 110% | 91.4% | reversed MDR in A2780-ADR cells | 41.5% | 48% and 26% | 81% and 88% | 82.7% | 40.6% | 40% | 45% | 44% | 45% | 34% | 40% | 35% | 41% | re-sensitized DU145-TXR cells to PTX | 93.3% | % Survival (individual sample) (A2780 cells; 15 µM compound + 500 nM PTX): 8% and 18%; viability at 15 µM (DU145-TXR cells; [2]): 90%; viability at 15 µM (DU145-TXR cells; [3]): 107%; viability at 15 µM (DU145-TXR cells; [4]): 99%; viability at 15 µM (DU145-TXR cells; [5]): 93%; viability at 15 µM (DU145-TXR cells; [6]): 91%; viability at 15 µM (DU145-TXR cells; [7]): 89%; viability at 15 µM (DU145-TXR cells; [8]): 93%; viability at 15 µM (DU145-TXR cells; [9]): 83% |
